Measured values taken from article PMC7826463, “Pamiparib dose escalation in Chinese patients with non‐mucinous high‐grade ovarian cancer or advanced triple‐negative breast cancer” (Cancer Medicine, 2020).
Several values for one entry are separate records, joined by “and”; a condition that tells them apart may be missing. Identical values can stand only once.

Key:
[1] = test system: high-grade ovarian cancer (HGOC); assay: CA-125 response per Gynecologic Cancer Intergroup in patients with HGOC; type: in vivo, human
Description: Among eligible patients with HGOC, carcinoma antigen 125 (CA‐125) response rate per Gynecologic Cancer Intergroup was also assessed. Patients with HGOC had CA‐125 tested in a local laboratory at baseline, every 6 weeks in the 1st year, and then, every 12 weeks thereafter. CA‐125 responses must have been confirmed and maintained for at least 28 days. Germline and tBRCA1/2 mutations were analyzed as predictive biomarkers of antitumor activity and resistance to pamiparib. BRCA mutations were assessed using next‐generation sequencing, performed by BGI Genomics Co., Ltd, using the germline (gBRCA) or somatic (tBRCA) Hereditary Breast and Ovarian Cancer Test. Approximately 14 to 18 evaluable patients were expected to enroll in the phase 1 part of the study. The safety population included all patients who received ≥1 dose of pamiparib. The PK population included all patients for whom valid pamiparib PK parameters could be estimated. Antitumor activity per RECIST v1.1 was assessed in all evaluable patients. […] The population evaluable for CA‐125 response included patients in the safety population with baseline CA‐125 ≥2 x upper limit of normal.

PARP1/2 = settings: cited from earlier work
[2] = test system: triple-negative breast cancer (TNBC); assay: Antitumor activity per RECIST v1.1 (best overall response, ORR, CBR, PFS) in patients with TNBC; type: in vivo, human
Description: Secondary objectives were assessment of PK parameters and antitumor activity. Blood samples for the PK analysis were collected at Cycle 1 on Days 1, 2, and 3. Pharmacokinetic sampling was performed at Cycle 1 on Day 1 (predose and at 0.5, 1, 2, 4, 6, 9, and 12 hours postdose), Day 2, Day 3, and Day 10 (predose and at 0.5, 1, 2, 4, 6, 9, and 12 hours postdose); then at Cycles 2 and 3 on Day 1 (predose and at 2 hours postdose). […] Tumor assessments were performed by the investigators at screening, every 6 weeks after the first dose of pamiparib in the 1st year, and every 12 weeks thereafter until progression, per RECIST v1.1. Patients completed the study at the time of their safety follow‐up visit; therefore, radiological assessment of disease progression was not performed after the safety follow‐up visit. Approximately 14 to 18 evaluable patients were expected to enroll in the phase 1 part of the study. The safety population included all patients who received ≥1 dose of pamiparib. The PK population included all patients for whom valid pamiparib PK parameters could be estimated. Antitumor activity per RECIST v1.1 was assessed in all evaluable patients. […] The population evaluable for CA‐125 response included patients in the safety population with baseline CA‐125 ≥2 x upper limit of normal. Descriptive statistics were used to summarize all study data. Continuous variables included the number of non‐missing observations, mean, standard deviation, median, minimum, and maximum. Categorical variables were summarized by their frequency and percentage. Progression‐free survival was estimated using the Kaplan–Meier method and the corresponding 95% confidence interval (CI) was constructed using Greenwood's formula. Standard PK parameters (i.e., area under the plasma concentration‐time curve [AUC] from time of drug administration; maximum plasma concentration [Cmax]; time to Cmax; elimination half‐life [t1/2]; apparent clearance; and apparent volume of distribution during terminal phase) were estimated and derived using standard non‐compartmental methods.

[3] = test system: patients with advanced solid tumors; settings: cited from earlier work
[4] = TNBC (n = 5), RECIST efficacy-evaluable
[5] = TNBC (n = 5), RECIST efficacy-evaluable, 20-60 mg BID
[6] = TNBC (n=6), Kaplan-Meier, NE, not estimable

Q: For `C[C@]12CCCN1CC1=NNC(=O)c3cc(F)cc4[nH]c2c1c34` [pamiparib, Pamiparib], which CA-125 response rate ([1]; HGOC (n=8), CA-125-evaluable population) is on record?
A: Its CA-125 response rate is 2 (25.0) n (%).

Q: What about the “Time to response (per CA-125 criteria), Median (range)” value ([1]; HGOC, n 2 responders) of the same compound?
A: The value was 1.45 (1.4–1.5) months.

Q: And the “Potency relative to olaparib (fold more potent)” value (PARP1/2)?
A: The value was 10 fold.

Q: And the “Clinical benefit rate (CR+PR+SD ≥24 weeks)” value [2, 4]?
A: Its value is 0 % (95% CI).

Q: What about the “Disease control rate (CR+PR+SD)” value [2, 4] of the same compound?
A: Its value is 0 % (95% CI).

Q: And the “Objective response rate (CR+PR)” value [2, 4]?
A: The value was 0 % (95% CI).

Q: What about the “Best overall response: Complete response” value [2, 5] of the same compound?
A: Its value is 0 n (%).

Q: And the “Best overall response: Partial response” value [2, 5]?
A: The value was 0 n (%).

Q: What about the “Best overall response: Stable disease” value [2, 5] of the same compound?
A: The value was 0 n (%).

Q: What about the “Median PFS (95% CI)” value ([2]; TNBC (n=6), Kaplan-Meier) of the same compound?
A: The value was 1.5 (1.45–1.61) months.

Q: What about the “Event-free rate at 3 months (95% CI)” value [2, 6] of the same compound?
A: The value was 0 (NE–NE) %.

Q: What about the “Event-free rate at 6 months (95% CI)” value [2, 6] of the same compound?
A: The value was 0 (NE–NE) %.

Q: What about the “Event-free rate at 9 months (95% CI)” value [2, 6] of the same compound?
A: Its value is 0 (NE–NE) %.

Q: And the “PFS Events” value ([2]; TNBC (n=6), safety population)?
A: The value was 5 (83.3) n (%).

Q: What about the “PFS events: Disease progression” value ([2]; TNBC (n=6), safety population) of the same compound?
A: Its value is 5 n (%) and 5 (83.3) n (%).

Q: What about the “Recommended phase 2 dose (RP2D)” value ([3]; FIH study NCT02361723, PO) of the same compound?
A: Its value is 60 mg BID.

Q: What about the “Linearity of pamiparib exposure” value ([3]; FIH study NCT02361723) of the same compound?
A: The value was “linear up to 80 mg BID”.

Q: What about the “Maximum tolerated dose (MTD)” value ([3]; FIH study NCT02361723) of the same compound?
A: The value was 80 mg BID.
